Measured values: US10993955B2, “Medicament for use in treating diabetes” (Shandong Zhonghai Pharmaceutical CO. LTD, priority 2016, dated 2021)

Tested on: diabetic patients
Assay: Therapeutic effect in diabetic patients (blood glucose, urine glucose), 3 months treatment
Format: in vivo, human
From the text: The medicament hereof is used to compare the therapeutic effects in diabetic patients, and the details are as follows:
The applicant has divided 100 diabetic patients into treatment group. Among these patients, 6 are aged 16 to 30 years old, 14 are 31 to 45 years old, 28 are 46 to 60 years old, and 52 are 61 to 75 years old.
During the treatment, the patients in the treatment group discontinue the administration of any other medicaments, and only take the medicament described in Embodiment 3 hereof, once in the morning and evening, 2 g each time; the patients in the control group take D-860 Rastinon according to the package insert, and the patients in treatment group and the control group of the invention were treated and observed for 3 months, and the results are as follows: […]

[1] = diabetic patients aged 16-30, after 3 months treatment
[2] = diabetic patients aged 31-45, after 3 months treatment
[3] = diabetic patients aged 46-60, after 3 months treatment
[4] = diabetic patients aged 61-75, after 3 months treatment

CCCCNC(=O)NS(=O)(=O)c1ccc(C)cc1 [D-860 Rastinon]
Blood sugar [1]: 6.2 mmol/L
Glucose in urine [1]: 1.0 mmol/L
Blood sugar [2]: 6.5 to 6.7 mmol/L
Glucose in urine [2]: 28.6 to 32.2 mmol/L
Blood sugar [3]: 7.3 to 7.6 mmol/L
Glucose in urine [3]: 31 to 35 mmol/L
Blood sugar [4]: 9.0 to 9.2 mmol/L
Glucose in urine [4]: 35 to 58 mmol/L
